# Test results: patent US20170283426A1, “COMPOUNDS FOR THE INHIBITION OF CYCLOPHILINS AND USES THEREOF” (Merck Patent GmbH, priority 2016, published 2017)
# Assays:
# CypD [1] = biological target: T1, CypD (Homo sapiens, UniProt P30405); test: CypD binding assay, competition Fluorescence-Polarisation with fluorescine labelled cyclosporin
# Method: The binding capacity of the compounds were measured using a competition Fluorescence-Polarisation based assay with fluorescine labelled cyclosporin. The protocol used was adapted from Hausch et al, Med Chem lett 2010, p 536.
# CypD [2] = biological target: T1, CypD; test: SPR binding; details: SPR surface; read-out: SPR CypD (KDss)
# Excerpt: Binding was confirmed on an SPR surface using a protocol adapted from Mori et al., J. Biomolecular Screening, 2009 p 419.
# T1 sequence (P30405 30-207): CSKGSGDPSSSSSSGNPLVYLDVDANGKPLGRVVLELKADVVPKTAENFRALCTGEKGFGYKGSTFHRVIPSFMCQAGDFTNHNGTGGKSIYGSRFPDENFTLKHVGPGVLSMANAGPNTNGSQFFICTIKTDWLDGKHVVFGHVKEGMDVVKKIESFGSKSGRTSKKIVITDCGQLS
IC50 (CypD [1]) [µM],Kd (CypD [2]) [µM],SMILES
< 10,< 10,"O=C(NCCc1ccc2c(c1)[C@H]1C[C@@H](N2)[C@H](O)CO1)C(=O)N[C@@H]1C[C@H]2CC[C@@H]1C2 [Compound 2, N-Bicyclo[2.2.1]hept-2-yl-N′-[2-((1R,9R,10S)-10-hydroxy-12-oxa-8-aza-tricyclo[7.3.1.02,7]trideca-2,4,6-trien-4-yl)-ethyl]-oxalamide]"
< 10,< 10,"O=C(NCCc1ccccc1)C(=O)NCCc1ccc2c(c1)[C@H]1C[C@@H](N2)[C@H](O)CO1 [Compound 3, N1-(2-((2R,3S,6R)-3-hydroxy-2,3,4,6-tetrahydro-1H-2,6-methanobenzo[c][1,5]oxazocin-8-yl)ethyl)-N2-phenethyloxalamide]"
< 10,< 10,"CC(C)CNC(=O)C(=O)NCCc1ccc2c(c1)[C@H]1C[C@@H](N2)[C@H](O)CO1 [Compound 4, N-1-(2-((2R,3S,6R)-3-hydroxy-2,3,4,6-tetrahydro-1H-2,6-methanobenzo[c][1,5]oxazocin-8-yl)ethyl)-N2-isobutyloxalamide]"
< 10,< 10,"O=C(NCCc1cccc(C(F)(F)F)c1)C(=O)NCCc1ccc2c(c1)[C@H]1C[C@@H](N2)[C@H](O)CO1 [Compound 5, N1-(2-((2R,3S,6R)-3-hydroxy-2,3,4,6-tetrahydro-1H-2,6-methanobenzo[c][1,5]oxazocin-8-yl)ethyl)-N2-(3-(trifluoromethyl)phenethyl)oxalamide]"
10 to 100,10 to 100,"CSc1ccccc1[C@H]1CCCN1C(=O)C(=O)NCCc1ccc2c(c1)[C@H]1C[C@@H](N2)[C@H](O)CO1 [Compound 6, N-[2-((1R,9R,10S)-10-hydroxy-12-oxa-8-aza-tricyclo[7.3.1.02,7]trideca-2(7),3,5-trien-4-yl)-ethyl]-2-[(R)-2-(2-methylsulfanyl-phenyl)-pyrrolidin-1-yl]-2-oxo-acetamide]"
10 to 100,10 to 100,"O=C(NCCc1ccccc1)C(=O)NCCc1ccc2c(c1)[C@@H]1C[C@H](N2)[C@H](O)CO1 [Compound 8, N1-(2-((2S,3S,6S)-3-hydroxy-2,3,4,6-tetrahydro-1H-2,6-methanobenzo[c][1,5]oxazocin-8-yl)ethyl)-N2-phenethyloxalamide]"
10 to 100,10 to 100,"CC(C)(C)CNC(=O)C(=O)NCCc1ccc2c(c1)[C@@H]1C[C@H](N2)[C@H](O)CO1 [Compound 10, N1-(2-((2S,3S,6S)-3-hydroxy-2,3,4,6-tetrahydro-1H-2,6-methanobenzo[c][1,5]oxazocin-8-yl)ethyl)-N2-neopentyloxalamide]"
10 to 100,10 to 100,"O=C(NCCc1ccc2c(c1)[C@H]1C[C@@H](N2)[C@H](O)CO1)C(=O)NCc1cccc(C(F)(F)F)c1 [Compound 11, N1-(2-((2R,3S,6R)-3-hydroxy-2,3,4,6-tetrahydro-1H-2,6-methanobenzo[c][1,5]oxazocin-8-yl)ethyl)-N2-(3-(trifluoromethyl)benzyl)oxalamide]"
10 to 100,10 to 100,"O=C(NCCc1cccc(C(F)(F)F)c1)C(=O)NCCc1ccc2c(c1)[C@@H]1C[C@H](N2)[C@H](O)CO1 [Compound 12, N1-(2-((2S,3S,6S)-3-hydroxy-2,3,4,6-tetrahydro-1H-2,6-methanobenzo[c][1,5]oxazocin-8-yl)ethyl)-N2-(3-(trifluoromethyl)phenethyl)oxalamide]"
10 to 100,10 to 100,"O=C(NCc1ccc2c(c1)[C@@H]1C[C@H](N2)[C@H](O)CO1)C(=O)NC1CCCC1 [Compound 13, N-Cyclopentyl-N′-((1S,9S,10S)-10-hydroxy-12-oxa-8-aza-tricyclo[7.3.1.02,7]trideca-2,4,6-trien-4-ylmethyl)-oxalamide]"
